The term Ki denotes a dissociation constant, usually derived from enzyme kinetics or from competition with a known ligand.

In test [1] the target is human Factor XIa (Homo sapiens (Human), UniProt P03951). In words: Factor XIa Assay. As to conditions: read-out: FXIa Ki. Format: biochemical. A digest of the protocol: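 Purified human FXIa (40 pM final) hydrolysing fluorogenic Z-Gly-Pro-Arg-AFC (100 μM) in 50 mM HEPES pH 7.4, 150 mM NaCl, 5 mM CaCl2, 0.1% PEG 8000, at room temperature or 37° C. Initial velocities measured after enzyme–inhibitor equilibration; Ki from Vo/Vi versus [I], assuming competitive inhibition.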
human Factor XIa, sequence (P03951 388-625): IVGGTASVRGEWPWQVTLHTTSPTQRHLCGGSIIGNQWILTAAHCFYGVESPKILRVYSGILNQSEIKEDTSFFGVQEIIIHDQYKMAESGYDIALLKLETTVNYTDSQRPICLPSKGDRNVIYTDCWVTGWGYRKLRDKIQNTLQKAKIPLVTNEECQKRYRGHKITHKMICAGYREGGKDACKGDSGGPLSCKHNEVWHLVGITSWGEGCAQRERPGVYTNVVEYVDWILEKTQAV
human Factor XIa, sequence (P03951 19-387 partner): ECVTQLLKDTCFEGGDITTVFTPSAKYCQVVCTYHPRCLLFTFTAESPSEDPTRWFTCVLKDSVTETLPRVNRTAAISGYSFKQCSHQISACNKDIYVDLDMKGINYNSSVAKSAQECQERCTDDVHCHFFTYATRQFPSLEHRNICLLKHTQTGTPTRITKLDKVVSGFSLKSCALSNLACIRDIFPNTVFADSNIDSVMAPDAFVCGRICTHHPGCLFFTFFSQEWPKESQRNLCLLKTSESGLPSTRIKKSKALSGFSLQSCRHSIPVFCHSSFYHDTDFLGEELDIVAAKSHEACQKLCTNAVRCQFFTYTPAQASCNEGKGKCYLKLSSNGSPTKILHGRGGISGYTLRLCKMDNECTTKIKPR

Test [2] concerns the target Human plasma kallikrein (Homo sapiens (Human), UniProt P03952). The test is described as follows: Kallikrein Assay. As to conditions: purified Human plasma kallikrein 0.5 nM, Acetyl-K-P-R-AFC, pH 7.4; Ki from IC50 by Cheng Prusoff. Format: biochemical. A digest of the protocol:
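Purified human plasma kallikrein (0.5 nM final) with Acetyl-K-P-R-AFC substrate ([…]) in 50 mM HEPES pH 7.4, 150 mM NaCl, 5 mM CaCl2, 0.1% PEG 8000, after enzyme-inhibitor equilibration. Fluorescence (405 ex/510 em) under linear conditions; IC50 from four-parameter fit, converted to Ki by Cheng-Prusoff.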

Human plasma kallikrein, sequence (P03952 391-638): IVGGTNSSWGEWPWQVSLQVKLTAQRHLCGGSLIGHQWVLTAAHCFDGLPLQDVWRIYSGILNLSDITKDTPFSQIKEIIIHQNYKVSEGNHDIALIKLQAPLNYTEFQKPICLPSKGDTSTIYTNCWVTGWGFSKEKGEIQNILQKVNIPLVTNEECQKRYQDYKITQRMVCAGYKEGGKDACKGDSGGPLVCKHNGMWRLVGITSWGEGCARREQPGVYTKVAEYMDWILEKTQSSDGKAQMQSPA
Human plasma kallikrein, sequence (P03952 20-390 partner): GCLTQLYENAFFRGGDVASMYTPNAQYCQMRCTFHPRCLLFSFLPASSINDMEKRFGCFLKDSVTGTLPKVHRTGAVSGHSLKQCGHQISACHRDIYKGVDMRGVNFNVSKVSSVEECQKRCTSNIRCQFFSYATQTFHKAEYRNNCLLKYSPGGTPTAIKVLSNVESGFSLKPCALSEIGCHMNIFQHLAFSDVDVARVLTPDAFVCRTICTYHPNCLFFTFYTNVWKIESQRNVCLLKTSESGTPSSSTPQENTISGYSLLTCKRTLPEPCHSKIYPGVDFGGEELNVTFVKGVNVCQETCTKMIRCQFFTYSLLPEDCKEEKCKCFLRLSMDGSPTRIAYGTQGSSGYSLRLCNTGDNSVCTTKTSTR

Consider `CC(C)OC(=O)Nc1ccc(C(=O)N[C@@H](Cc2ccccc2)C(=O)N2CCC[C@@]3(C2)OC(=O)Nc2ccc(Cl)c(F)c23)cc1` [Example 231, isopropyl (4-(((S)-1-((R)-6-chloro-5-fluoro-2-oxo-1,2-dihydrospiro[benzo[d][1,3]oxazine-4,3′-piperidin]-1′-yl)-1-oxo-3-phenylpropan-2-yl)carbamoyl)phenyl)carbamate], for which the values for the Ki in test [1] and in test [2] were 35.1 nM and 4.74 nM, respectively.

With `O=C1Nc2ccc(Cl)c(F)c2[C@@]2(CCCN(C(=O)[C@H](Cc3ccccc3)NC(=O)c3ccc(B(O)O)s3)C2)O1` [Example 233], the results for the Ki in test [1] and in test [2] were 7.88 nM and 2.44 nM, respectively.

As for `COC(=O)Nc1cnc(C(=O)N[C@@H](Cc2ccccc2)C(=O)N2CCC[C@@]3(C2)OC(=O)Nc2ccc(Cl)c(F)c23)nc1` [Example 234], the inhibitory constant (Ki) is 16.9 nM in test [1] and 3.03 nM in test [2].

On to `O=C1Nc2ccc(Cl)c(F)c2[C@@]2(CCCN(C(=O)[C@H](Cc3ccccc3)NC(=O)c3ccc(-c4ncc[nH]4)s3)C2)O1` [Example 235], for which the Ki in test [1] was 1.26 nM; in test [2], 0.87 nM.

With `O=C1Nc2ccc(Cl)c(F)c2[C@@]2(CCCN(C(=O)[C@H](CC3CC3)NC(=O)c3ccc(-c4ncc[nH]4)s3)C2)O1` [Example 237], the Ki in test [1] turned out to be 5.85 nM; in test [2], 0.96 nM.

For `CC(=O)Nc1ccc(C(=O)N[C@@H](Cc2ccccc2)C(=O)N2CCC[C@@]3(C2)OC(=O)Nc2ccc(Cl)c(F)c23)cc1` [Example 240, 4-acetamido-N-((S)-1-((R)-6-chloro-5-fluoro-2-oxo-1,2-dihydrospiro[benzo[d][1,3]oxazine-4,3′-piperidin]-1′-yl)-1-oxo-3-phenylpropan-2-yl)benzamide], the figures for the Ki in test [1] and in test [2] were 4.28 nM and 1.49 nM, respectively.

As for `COC(=O)NCc1ccc(C(=O)N[C@@H](Cc2ccccc2)C(=O)N2CCC[C@@]3(C2)OC(=O)Nc2ccc(Cl)c(F)c23)cc1` [Example 241, methyl (4-(((S)-1-((R)-6-chloro-5-fluoro-2-oxo-1,2-dihydrospiro[benzo[d][1,3]oxazine-4,3′-piperidin]-1′-yl)-1-oxo-3-phenylpropan-2-yl)carbamoyl)benzyl)carbamate], the Ki in test [1] was determined as 53.9 nM; in test [2], 2.13 nM.

For the compound `NC(=O)c1ccc(C(=O)N[C@@H](Cc2ccccc2)C(=O)N2CCC[C@@]3(C2)OC(=O)Nc2ccc(Cl)c(F)c23)s1` [Example 245], the Ki in test [1] is 0.97 nM; in test [2], 0.65 nM.

Regarding `Cc1[nH]c2ccc(C(=O)N[C@@H](Cc3ccccc3)C(=O)N3CCC[C@@]4(C3)OC(=O)Nc3ccc(Cl)cc34)cc2c1C(=O)O` [Example 249], the Ki in test [1] was 2.02 nM; in test [2], less than 1.36 nM.

As to `Cc1cc2cc(C(=O)N[C@@H](Cc3ccccc3)C(=O)N3CCC[C@@]4(C3)OC(=O)Nc3ccc(Cl)cc34)ccc2[nH]1` [Example 250], the Ki in test [1] was found to be 41.9 nM; in test [2] it was 13.3 nM.

Regarding `O=C1CCc2cc(C(=O)N[C@@H](CC3CC3)C(=O)N3CCC[C@@]4(C3)OC(=O)Nc3ccc(Cl)c(F)c34)ccc2N1` [Example 251], the Ki in test [1] is 5.72 nM; in test [2] it was less than 1.36 nM.

As to `Nc1n[nH]c2cc(C(=O)N[C@@H](CC3CC3)C(=O)N3CCC[C@@]4(C3)OC(=O)Nc3ccc(Cl)c(F)c34)ccc12` [Example 254], the figures for the Ki in test [1] and in test [2] were 2.11 nM and 0.83 nM, respectively.

As for `O=C1Nc2ccc(Cl)c(F)c2[C@@]2(CCCN(C(=O)[C@H](CC3CC3)NC(=O)c3ccc4[nH]c(=O)ccc4c3)C2)O1` [Example 255], the Ki in test [1] was 4 nM; in test [2], 0.45 nM.

For the compound `O=C1Nc2ccc(Cl)c(F)c2[C@@]2(CCCN(C(=O)[C@H](Cc3ccccc3)NC(=O)c3ccc4[nH]nc(C(F)(F)F)c4c3)C2)O1` [Example 256, N—((S)-1-((R)-6-chloro-5-fluoro-2-oxo-1,2-dihydrospiro[benzo[d][1,3]oxazine-4,3′-piperidin]-1′-yl)-1-oxo-3-phenylpropan-2-yl)-3-(trifluoromethyl)-1H-indazole-5-carboxamide], the figures for the inhibition constant Ki in test [1] and in test [2] were more than 875 nM and 31 nM, respectively.

Turning to `O=C1Nc2ccc(Cl)c(F)c2[C@@]2(CCCN(C(=O)[C@H](Cc3ccccc3)NC(=O)c3ccc4[nH]c(=O)ccc4c3)C2)O1` [Example 257], the Ki came to 0.78 nM in test [1] and 0.57 nM in test [2].

Regarding `Nc1n[nH]c2cc(C(=O)N[C@@H](Cc3ccncc3)C(=O)N3CC[C@@]4(C3)OC(=O)Nc3ccc(Cl)cc34)ccc12` [Example 258], the results for the inhibitory constant (Ki) in test [1] and in test [2] were 1.73 nM and 4.08 nM, respectively.

With `Nc1cc(C(=O)N[C@@H](Cc2ccccc2)C(=O)N2CCC3(C2)OC(=O)Nc2ccc(Cl)cc23)cc2[nH]cnc12` (some centres unmarked) [Example 260], the values for the inhibitory constant (Ki) in test [1] and in test [2] were 77.9 nM and 130 nM, respectively.

As for `Nc1n[nH]c2cc(C(=O)N[C@@H](CC(=O)N3CCC3)C(=O)N3CCC[C@@]4(C3)OC(=O)Nc3ccc(Cl)cc34)ccc12` [Example 266], the Ki came out at 3.82 nM in test [1] and 1.22 nM in test [2].

In the case of `O=C1Nc2ccc(Cl)c(F)c2[C@@]2(CCCN(C(=O)[C@H](Cc3ccc(F)cc3)NC(=O)c3cc(F)c(C(=O)C(=O)O)s3)C2)O1` [Example 267, 2-(5-(((S)-1-((R)-6-chloro-5-fluoro-2-oxo-1,2-dihydrospiro[benzo[d][1,3]oxazine-4,3′-piperidin]-1′-yl)-3-(4-fluorophenyl)-1-oxopropan-2-yl)carbamoyl)-3-fluorothiophen-2-yl)-2-oxoacetic acid], the Ki in test [1] stood at 0.7 nM; in test [2], 0.29 nM.

Take `Nc1n[nH]c2cc(C(=O)N[C@@H](CC(=O)N3CCCC3)C(=O)N3CCC[C@@]4(C3)OC(=O)Nc3ccc(Cl)cc34)ccc12` [Example 268]: the Ki in test [1] is 0.85 nM; in test [2] it was 0.9 nM.

With `CC(C)(O)C[C@H](NC(=O)c1ccc2c(N)n[nH]c2c1)C(=O)N1CCC[C@@]2(C1)OC(=O)Nc1ccc(Cl)cc12` [Example 269], the Ki in test [1] turned out to be 5 nM; in test [2] it was 3 nM.

Turning to `O=C(Nc1ccc(C(=O)N[C@@H](Cc2ccc(F)cc2)C(=O)N2CCC[C@@]3(C2)OC(=O)Nc2ccc(Cl)c(F)c23)cc1)OCCc1nnn[nH]1` [Example 274, 2-(1H-tetrazol-5-yl)ethyl (4-(((S)-1-((R)-6-chloro-5-fluoro-2-oxo-1,2-dihydrospiro[benzo[d][1,3]oxazine-4,3′-piperidin]-1′-yl)-3-(4-fluorophenyl)-1-oxopropan-2-yl)carbamoyl)phenyl)carbamate], the values for the Ki in test [1] and in test [2] were 3.22 nM and 0.65 nM, respectively.
